Source: patent publication US20100240683A1, “COMBINATION THERAPY, COMPOSITION AND METHODS FOR THE TREATMENT OF CARDIOVASCULAR DISORDERS” (Syndromex Ltd., priority 2007, published 2010)

Tests used:
CYP2B6 = biological target: T1, CYP2B6 (Homo sapiens, UniProt P20813); experiment: Fluorimetric CYP inhibition assay, CYP2B6-EFC; settings: read-out: IC50 CYP2B6; substrate EFC
T1 sequence (P20813 1-491): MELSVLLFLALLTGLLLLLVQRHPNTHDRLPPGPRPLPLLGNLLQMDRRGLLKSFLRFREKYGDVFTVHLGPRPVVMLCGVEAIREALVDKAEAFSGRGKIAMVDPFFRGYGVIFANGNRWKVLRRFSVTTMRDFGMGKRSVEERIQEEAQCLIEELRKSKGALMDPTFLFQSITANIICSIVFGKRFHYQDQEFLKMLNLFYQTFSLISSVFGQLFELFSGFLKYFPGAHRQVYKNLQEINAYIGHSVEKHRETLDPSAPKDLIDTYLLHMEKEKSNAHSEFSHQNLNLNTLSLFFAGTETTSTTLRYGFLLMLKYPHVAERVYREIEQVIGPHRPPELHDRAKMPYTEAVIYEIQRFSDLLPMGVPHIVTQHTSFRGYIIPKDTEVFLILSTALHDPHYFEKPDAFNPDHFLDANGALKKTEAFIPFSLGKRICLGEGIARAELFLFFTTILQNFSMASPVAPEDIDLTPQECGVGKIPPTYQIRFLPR

CYP1A2 = biological target: T2, CYP1A2 (Homo sapiens, UniProt P05177); experiment: in vitro
T2 sequence (P05177 1-516): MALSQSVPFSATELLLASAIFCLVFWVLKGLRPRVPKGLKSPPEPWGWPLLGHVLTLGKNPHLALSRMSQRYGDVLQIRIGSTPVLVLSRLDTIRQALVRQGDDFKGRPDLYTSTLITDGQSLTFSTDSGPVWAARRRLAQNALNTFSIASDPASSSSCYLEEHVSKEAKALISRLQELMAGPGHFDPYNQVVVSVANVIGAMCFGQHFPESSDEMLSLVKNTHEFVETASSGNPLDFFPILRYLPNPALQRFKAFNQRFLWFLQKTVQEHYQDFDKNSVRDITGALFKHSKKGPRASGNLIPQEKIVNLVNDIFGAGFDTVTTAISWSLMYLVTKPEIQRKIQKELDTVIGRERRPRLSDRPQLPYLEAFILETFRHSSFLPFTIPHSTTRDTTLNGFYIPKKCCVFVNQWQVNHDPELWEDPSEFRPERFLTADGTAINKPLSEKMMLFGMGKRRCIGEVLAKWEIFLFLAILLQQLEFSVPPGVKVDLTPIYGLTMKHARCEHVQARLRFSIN

CYP2C8 [1] = biological target: T3, CYP2C8 (Homo sapiens, UniProt P10632); experiment: in vitro
T3 sequence (P10632 1-490): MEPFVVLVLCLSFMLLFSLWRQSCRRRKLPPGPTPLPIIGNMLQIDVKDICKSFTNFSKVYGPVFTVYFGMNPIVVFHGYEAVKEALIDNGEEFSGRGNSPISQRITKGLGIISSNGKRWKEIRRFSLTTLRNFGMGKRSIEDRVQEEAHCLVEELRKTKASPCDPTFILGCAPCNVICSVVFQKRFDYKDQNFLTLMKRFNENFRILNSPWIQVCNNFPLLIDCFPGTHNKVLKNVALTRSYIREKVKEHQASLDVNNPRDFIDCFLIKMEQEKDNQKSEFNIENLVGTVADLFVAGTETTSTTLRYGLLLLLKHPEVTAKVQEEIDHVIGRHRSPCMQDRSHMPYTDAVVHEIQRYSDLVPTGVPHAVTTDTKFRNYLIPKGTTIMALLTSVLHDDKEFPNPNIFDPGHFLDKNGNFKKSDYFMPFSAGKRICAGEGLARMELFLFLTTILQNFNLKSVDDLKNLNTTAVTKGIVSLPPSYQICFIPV

CYP2C8 [2] = biological target: T3, CYP2C8
Guinea pigs = experiment: Hypolipidemic effect in Guinea pigs model (plasma TG, cholesterol, lipoproteins); assay type: in vivo, Guinea pig; settings: Simvastatin table: gavage 10 mg/kg/bw, 21 days, n = 8
Procedure: • Guinea pigs (400-500 g) were obtained from Harlan (Israel) or Harlan (Netherlands). Animals were treated by gavage with Medica 16αα, Medica 16ββ and Simvastatin as indicated in 1% CMC for the specified treatment periods. During treatment period the animals were weighed and observed daily.
Non-fasted guinea pigs were anesthetized with ketamine (75 mg/kg body weight) and xylazine (6 mg/kg body weight), followed by S.C. abdominal injections of 2% lignocaine. Anesthetized animals were bled into tubes containing EDTA. Plasma chylomicrons were removed by centrifugation (20 min, 30K rpm, TST 55.5 rotor). Plasma TG was assayed by Roche/Hitachi kit. Plasma cholesterol was assayed by Roche Diagnostic's kit.
Chylomicrons-free plasma was subjected to continuous KBr-gradient centrifugation (24 h, 40K rpm, SW41 rotor), followed by fractionating gradient tubes into 0.5 ml fractions. TG, cholesterol and protein of each fraction were measured as described above. […]
Guinea pigs were treated by gavage with M16αα, M16ββ or with Simvastatin, weighed and observed daily. Plasma triglycerides (TG) and cholesterol, as well as plasma lipoproteins and their composition were examined on days 21 and 22 (as specified in the following tables) of the experiments, as described in Experimental procedures. As clearly shown by Table 3 and FIG. 1, treatment with M16αα decreases plasma triglycerides (TG).

CYP2C9 = CYP2C9 (Homo sapiens, UniProt P11712); experiment: Fluorimetric CYP inhibition assay, CYP2C9-MFC; settings: human, MFC; for inhibition at 0 μM: positive control 0.00 μM (second line); for inhibition at 0.01 μM: positive control 0.01 μM (first line); for inhibition at 0.02 μM: positive control 0.02 μM; for inhibition at 0.06 μM: positive control 0.06 μM; for inhibition at 1.67 μM: positive control 1.67 μM
Sequence of CYP2C9 (P11712 whole entry): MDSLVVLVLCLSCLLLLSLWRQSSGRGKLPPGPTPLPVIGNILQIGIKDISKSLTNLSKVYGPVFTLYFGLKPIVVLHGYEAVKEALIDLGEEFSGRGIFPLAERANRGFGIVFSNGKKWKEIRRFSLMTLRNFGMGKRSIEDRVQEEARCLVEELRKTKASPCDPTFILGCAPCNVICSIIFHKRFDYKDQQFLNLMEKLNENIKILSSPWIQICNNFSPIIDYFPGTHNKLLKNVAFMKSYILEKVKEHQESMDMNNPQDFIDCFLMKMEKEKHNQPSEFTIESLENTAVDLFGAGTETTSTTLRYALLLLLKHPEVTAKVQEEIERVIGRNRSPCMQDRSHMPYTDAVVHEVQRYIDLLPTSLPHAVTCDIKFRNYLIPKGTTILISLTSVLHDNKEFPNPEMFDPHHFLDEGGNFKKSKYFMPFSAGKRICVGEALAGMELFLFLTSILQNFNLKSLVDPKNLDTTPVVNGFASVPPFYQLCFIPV

With `N[C@@H]1C[C@H]1c1ccccc1` (racemic) [Tranylcypromine, reference compound] the IC50 (CYP2B6) was 5.9 µM.
Compound `Cc1nc2c([nH]1)c(=O)n(C)c(=O)n2Cc1ccco1` [Furafylline, reference compound] has an inhibition at 5.56 μM (CYP1A2; % Inhibition (set 1)) of 90% and an inhibition at 50 μM (CYP1A2; % Inhibition (set 2)) of 99%.
`O=c1c(O)c(-c2ccc(O)c(O)c2)oc2cc(O)cc(O)c12` [Quercetin, reference compound] gave an inhibition at 0.05 μM (CYP2C8 [1]; % Inhibition (set 1)) of 8%, an inhibition at 0.41 μM (CYP2C8 [1]; % Inhibition (set 1)) of 16% and an inhibition at 1.23 μM (CYP2C8 [1]; % Inhibition (set 1)) of 51%. The inhibition at 3.7 μM (CYP2C8 [1]; % Inhibition (set 1)) was 88%, the inhibition at 11.11 μM (CYP2C8 [1]; % Inhibition (set 1)) was 100% and the inhibition at 33.33 μM (CYP2C8 [1]; % Inhibition (set 1)) was 100%. For the same compound, the inhibition at 100 μM (CYP2C8 [1]; % Inhibition (set 1)) was 100%, the inhibition at 0.05 μM (CYP2C8 [1]; % Inhibition (set 2)) was 0% and the inhibition at 0.41 μM (CYP2C8 [1]; % Inhibition (set 2)) was 9%. The inhibition at 1.23 μM (CYP2C8 [1]; % Inhibition (set 2)) was 32%, the inhibition at 3.7 μM (CYP2C8 [1]; % Inhibition (set 2)) was 89% and the inhibition at 11.11 μM (CYP2C8 [1]; % Inhibition (set 2)) was 98%. The inhibition at 33.33 μM (CYP2C8 [1]; % Inhibition (set 2)) was 100%, the inhibition at 100 μM (CYP2C8 [1]; % Inhibition (set 2)) was 100% and the IC50 (CYP2C8 [2]) was 1.4 µM. The “% Inhibition (set 2)” value (CYP2C8 [2]; 0.05 μM) was 0%.
With `CCC(C)(C)C(=O)O[C@H]1C[C@@H](C)C=C2C=C[C@H](C)[C@H](CC[C@@H]3C[C@@H](O)CC(=O)O3)[C@H]21` [Simvastatin, reference compound] the “Plasma TG” value (Guinea pigs) was 83 ± 16 mg % and the Plasma cholesterol (Guinea pigs; *p < 0.05) was 23 ± 2.0* mg %.
`Nc1ccc(S(=O)(=O)Nc2ccnn2-c2ccccc2)cc1` [Sulfaphenazole] was tested, and the inhibition at 0 μM (CYP2C9; % Inhibition (set 1)) was 0%, the inhibition at 0.01 μM (CYP2C9; % Inhibition (set 1)) was 0% and the inhibition at 0.02 μM (CYP2C9; % Inhibition (set 1)) was 3%. The inhibition at 0.06 μM (CYP2C9; % Inhibition (set 1)) was 11%, the inhibition at 1.67 μM (CYP2C9; % Inhibition (set 1)) was 76% and the inhibition at 5 μM (CYP2C9; % Inhibition (set 1), positive control 5.00 μM) was 89%. It also gave an inhibition at 0 μM (CYP2C9; % Inhibition (set 2)) of 0%, an inhibition at 0.01 μM (CYP2C9; % Inhibition (set 2)) of 1% and an inhibition at 0.02 μM (CYP2C9; % Inhibition (set 2)) of 3%. The inhibition at 0.06 μM (CYP2C9; % Inhibition (set 2)) was 6% and the inhibition at 1.67 μM (CYP2C9; % Inhibition (set 2)) was 74%.
